According to patent publication US5714615A (priority 1994, dated 1998):
pIC50: −log10 of the molar value. Entries after “also recorded” stand apart in the source; their conditions may differ.

What was measured:
electric eel AChE = electric eel AChE (Electrophorus electricus, UniProt O42275); assay type: biochemical
human erythrocyte AChE = human erythrocyte AChE (Homo sapiens, UniProt P22303); assay type: biochemical
GA = system: GA; parameters: species or system Male ICR mice; conditions: mouse, in vivo
in vivo = conditions: mouse, po
[1] = mouse, in vivo
AChE = assay type: biochemical, electric eel and human
DMTS performance = conditions: monkey, in vivo; cited from earlier work
[2] = biological target: T1, electric eel acetylcholinesterase (Electrophorus electricus, UniProt O42275); assay type: biochemical; conditions: 0.1m phosphate buffer
T1 sequence (O42275 24-633): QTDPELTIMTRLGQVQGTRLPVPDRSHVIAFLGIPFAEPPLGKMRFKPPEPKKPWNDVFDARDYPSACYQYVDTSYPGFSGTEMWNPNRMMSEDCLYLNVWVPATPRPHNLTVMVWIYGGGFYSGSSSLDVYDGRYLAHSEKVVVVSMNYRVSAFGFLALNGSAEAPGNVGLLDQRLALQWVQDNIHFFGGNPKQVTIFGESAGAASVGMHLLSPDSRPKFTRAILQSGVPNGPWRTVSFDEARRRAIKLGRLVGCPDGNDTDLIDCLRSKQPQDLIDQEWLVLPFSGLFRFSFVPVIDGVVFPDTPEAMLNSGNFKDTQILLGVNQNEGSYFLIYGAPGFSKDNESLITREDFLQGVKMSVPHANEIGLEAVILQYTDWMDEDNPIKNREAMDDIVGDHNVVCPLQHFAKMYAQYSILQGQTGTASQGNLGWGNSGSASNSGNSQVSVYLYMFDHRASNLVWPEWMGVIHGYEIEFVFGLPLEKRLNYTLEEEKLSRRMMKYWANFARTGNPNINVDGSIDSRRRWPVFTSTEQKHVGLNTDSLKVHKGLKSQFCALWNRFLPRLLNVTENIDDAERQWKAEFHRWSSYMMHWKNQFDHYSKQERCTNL

[3] = biological target: human erythrocyte acetylcholinesterase (Homo sapiens, UniProt P22303); assay type: biochemical; conditions: erythrocyte ache
human erythrocyte acetylcholinesterase, sequence (P22303-2 with tags, fused parts or gaps limits assumed): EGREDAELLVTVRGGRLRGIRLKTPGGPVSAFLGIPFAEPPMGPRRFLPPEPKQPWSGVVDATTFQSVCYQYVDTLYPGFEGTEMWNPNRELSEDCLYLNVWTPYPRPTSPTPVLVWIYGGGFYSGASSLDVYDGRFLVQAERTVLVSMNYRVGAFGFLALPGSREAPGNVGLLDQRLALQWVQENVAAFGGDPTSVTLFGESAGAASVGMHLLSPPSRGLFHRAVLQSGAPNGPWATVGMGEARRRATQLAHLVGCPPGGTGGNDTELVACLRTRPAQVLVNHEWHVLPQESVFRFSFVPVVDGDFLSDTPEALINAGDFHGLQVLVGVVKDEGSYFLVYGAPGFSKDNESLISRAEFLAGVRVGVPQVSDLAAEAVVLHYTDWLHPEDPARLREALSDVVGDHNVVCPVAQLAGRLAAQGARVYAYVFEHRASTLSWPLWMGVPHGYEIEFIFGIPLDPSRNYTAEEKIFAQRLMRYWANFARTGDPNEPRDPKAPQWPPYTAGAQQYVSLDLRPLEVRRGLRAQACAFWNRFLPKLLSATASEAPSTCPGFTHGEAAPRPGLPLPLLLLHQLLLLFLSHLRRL

nicotinic receptor = nicotinic receptor (Rattus norvegicus, UniProt P09483+P12390); assay: biochemical; assay type: binding
nicotinic receptor, sequence (P12390 25-500): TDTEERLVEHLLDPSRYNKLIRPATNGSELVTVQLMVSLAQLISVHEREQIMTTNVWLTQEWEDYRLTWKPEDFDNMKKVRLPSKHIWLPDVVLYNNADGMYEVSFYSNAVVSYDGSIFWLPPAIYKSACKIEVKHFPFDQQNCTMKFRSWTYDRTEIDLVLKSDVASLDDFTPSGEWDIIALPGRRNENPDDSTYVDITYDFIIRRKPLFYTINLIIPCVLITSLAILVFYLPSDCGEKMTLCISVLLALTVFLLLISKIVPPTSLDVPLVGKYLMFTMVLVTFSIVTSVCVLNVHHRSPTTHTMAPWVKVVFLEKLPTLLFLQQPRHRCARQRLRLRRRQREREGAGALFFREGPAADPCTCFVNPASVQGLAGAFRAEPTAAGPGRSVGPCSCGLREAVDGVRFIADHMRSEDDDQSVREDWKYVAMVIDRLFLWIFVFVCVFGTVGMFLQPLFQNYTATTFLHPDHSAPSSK
nicotinic receptor, sequence (P09483 31-630): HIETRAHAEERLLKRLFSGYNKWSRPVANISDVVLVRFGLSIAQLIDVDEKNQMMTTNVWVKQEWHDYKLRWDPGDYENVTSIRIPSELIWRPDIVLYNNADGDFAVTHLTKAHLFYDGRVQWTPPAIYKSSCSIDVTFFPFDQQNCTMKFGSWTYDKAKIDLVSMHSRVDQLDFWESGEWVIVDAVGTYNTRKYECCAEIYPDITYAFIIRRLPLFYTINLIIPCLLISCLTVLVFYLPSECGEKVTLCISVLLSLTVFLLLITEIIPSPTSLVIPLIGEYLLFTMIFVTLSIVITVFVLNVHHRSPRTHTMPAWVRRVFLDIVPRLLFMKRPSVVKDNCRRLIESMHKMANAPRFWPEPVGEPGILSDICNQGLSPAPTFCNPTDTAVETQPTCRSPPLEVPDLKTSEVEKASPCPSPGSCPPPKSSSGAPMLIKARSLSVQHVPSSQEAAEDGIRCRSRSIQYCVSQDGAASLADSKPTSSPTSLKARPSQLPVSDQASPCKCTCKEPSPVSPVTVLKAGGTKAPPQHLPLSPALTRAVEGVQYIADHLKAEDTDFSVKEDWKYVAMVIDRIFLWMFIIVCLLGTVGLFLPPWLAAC

[4] = biological target: T1, electric eel acetylcholinesterase; conditions: cited from earlier work

human erythrocyte AChE, sequence (P22303-2 with tags, fused parts or gaps limits assumed): as the sequence (P22303-2 with tags, fused parts or gaps limits assumed) above
electric eel AChE, sequence (O42275 24-633): as the sequence (O42275 24-633) above

SMILES: CON=Cc1c(O)ccc[n+]1C [Compound 1c, O-Methyl-N-(3-hydroxy-1-methyl-2-pyridinemethylene) hydroxylamine chloride]
- inhibition of electric eel AChE (electric eel AChE): did not inhibit either enzyme at concentrations up to 1 mM
- inhibition of human AChE (human erythrocyte AChE): did not inhibit either enzyme at concentrations up to 1 mM
- % survival (GA): 0%
- LD50 at 24 h (in vivo): > 3200 µmol/kg

SMILES: C[n+]1cccc(O)c1C=NO [Compound 1f]
- inhibition of electric eel AChE (electric eel AChE): did not inhibit either enzyme at concentrations up to 1 mM
- inhibition of human AChE (human erythrocyte AChE): did not inhibit either enzyme at concentrations up to 1 mM
- % survival (GA): 0%
- comparative drug toxicity [1]: small increase in toxicity

SMILES: C[n+]1cc(O)ccc1C=NO [Compound 1g]
- % survival (GA): 0%
- comparative drug toxicity [1]: small increase in toxicity

SMILES: C[n+]1cccc(O)c1C=NNC(=O)Nc1ccccc1.[Cl-] [Compound 3b, 3-Hydroxy-1-methyl-2-[[(N-phenylaminocarbonyl)hydrazono]methyl] pyridinium chloride]
- mode of inhibition of AChE (AChE): mixed-type inhibition; also recorded: noncompetitive kinetics

SMILES: Clc1cccc(Cl)c1N=C1NCCN1 [Clonidine, clonidine]
- delay intervals at which DMTS is improved (DMTS performance): improves DMTS performance to the greatest extent at medium delays
- duration of DMTS improvement after administration (DMTS performance): at least 24 hr

SMILES: CN1CCCC1c1cccnc1 (stereo not shown) [Nicotine]
- improvement in DMTS performance (DMTS performance): 5-10 % points

SMILES: CNC(=O)Oc1ccc2c(c1)[C@]1(C)CCN(C)[C@@H]1N2C [Physostigmine]
- kobs/[I] (eel) [2]: 140000 M⁻¹ s⁻¹
- kobs/[I] (human) [3]: 19000 M⁻¹ s⁻¹
- binding to nicotinic receptors (nicotinic receptor): no selective binding to nicotinic receptors, even at mM concentrations
- kobs/[I] (literature value, footnote to eel column) [4]: 18500 M⁻¹ s⁻¹
- delay intervals at which DMTS is improved (DMTS performance): acts more evenly across short, medium and long delays
- duration of DMTS response (DMTS performance): evokes responses only on the day of administration
- improvement in DMTS performance (DMTS performance): 5-10 % points

SMILES: C[n+]1ccccc1C=NOCc1ccccc1 [Compound 1a, O-Benzyl-N-(1-methyl-2-pyridinemethylene) hydroxylamine chloride]
- mode of inhibition of AChE (AChE): pure competitive inhibition
- comparative drug toxicity [1]: 1a>1b

SMILES: CN(C)C(=O)Oc1ccc[n+](C)c1 [Pyridostigmine, pyridostigmine]
- kobs/[I] (literature value, footnote to eel column) [4]: 843 M⁻¹ s⁻¹

SMILES: C[n+]1ccccc1C=NNC(=O)C[n+]1ccccc1 [Compound 5b, 2-(1-Methyl-2-pyridinemethylene)-1-[2-(1-pyridinium)acetyl] hydrazine dichloride]
- mode of inhibition of AChE (AChE): mixed-type inhibition; also recorded: At concentrations up to 75 μM, 5b acts as a noncompetitive inhibitor; also recorded: at higher concentrations, 5b is an uncompetitive inhibitor

SMILES: C[n+]1cccc(O)c1C=NOCc1ccccc1 [Compound 1b, O-Benzyl-N-(3-hydroxy-1-methyl-2-pyridinemethylene) hydroxylamine chloride]
- mode of inhibition of AChE (AChE): pure competitive inhibition
- comparative drug toxicity [1]: 1b>1c

SMILES: C[n+]1cccc(O)c1C=NOCc1ccc(Cl)cc1 [Compound 1d, O-(p-Chlorobenzyl)-N-(3-hydroxy-1-methyl-2-pyridinemethylene) hydroxylamine chloride]
- mode of inhibition of AChE (AChE): pure competitive inhibition

SMILES: C[N+](C)(C)CCOC(N)=O [Carbachol]
- pIC50 (nicotinic receptor): 6.16
- potency less than nicotine (nicotinic receptor): about 18 fold

SMILES: COc1ccc(CON=Cc2c(O)ccc[n+]2C)cc1 [Compound 1e, O-(p-Methoxybenzyl)-N-(3-hydroxy-1-methyl-2-pyridinemethylene) hydroxylamine chloride]
- mode of inhibition of AChE (AChE): pure competitive inhibition
